According to PubChem BioAssay AID179 (DTP/NCI, 2004):
pEC50, pIC50: −log10 of the molar value. Several values for one entry are separate records, joined by “and”; a condition that tells them apart may be missing. Equal entries are not always repeated. Activity calls are given as the source filed them.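 The calls were made as follows: active = compounds giving half or more protection of infected cells from virus-caused growth loss, again on retest; inactive = the rest.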 *1 amine or outer side, *2 acyl side, *3 side chain or, on linkers, in order; H or OH if unused. Where a SMILES comes first, the peptide text is derived from it. Bridges are numbered along the chain shown (N, C = ends). Roman numbers before positions name the chains, in order. [ ]: non-standard residue; d: D form. The star is where a group is joined. X3 = CC(=O)N(C)SCC(N[*:1])C(=O)[*:2]; NMeF = CN[CH](Cc1ccccc1)C(=O)O; NMeV = CN[CH](C(=O)O)C(C)C; Cbz = O=C(OCc1ccccc1)*; Boc = CC(C)(C)OC(=O)*; OBn = c1ccc(CO*)cc1; Bn = c1ccc(C*)cc1; For = O=C*

Tested on: CEM cells HIV-1 protection, formazan growth assay
Assay: NCI AIDS Antiviral Assay
Details: for pIC50: measured here: growth of uninfected CEM cells
Method: The ability of compounds to protect human CEM cells from HIV-1 infection is measured as a screen for new compounds capable of inhibiting the HIV virus. Five concentrations of drug were tested on uninfected and infected cells and cell growth was measured using a soluble formazan assay. […] Compounds that provided at least 50% protection were retested. Compounds that provided at least 50% protection on retest were listed as moderately active. Compounds that reproducibly provided 100% protection were listed as confirmed active. […] Note that the inability to provide protection could be due to toxicity.

Row | Structure (SMILES) | pEC50 | pIC50 | outcome
1 | O=C1NC(=O)C2C1N(Cc1ccccc1)C(=O)N2Cc1ccccc1 (configuration not stated) | < 3.97 | < 3.97 | –
2 | CC(=O)N(C)SCC(NC(=O)C(Cc1ccccc1)NC(=O)OCc1ccccc1)C(=O)NC(Cc1ccccc1)C(=O)NC(Cc1cn(C=O)c2ccccc12)C(=O)NC(CCCCNC(=O)OCc1ccccc1)C(=O)NC(C(=O)NC(CSN(C)C(C)=O)C(=O)NC(C(N)=O)C(C)OCc1ccccc1)C(C)OCc1ccccc1 (configuration not stated) (Cbz-F[X3]FW(For)K(Cbz)T(Bn)[X3]T(Bn)-NH2; configuration not given here) | < 4.00 | < 4.00 | –
3 | N#CN/C(N)=N/S(=O)(=O)c1ccc([N+](=O)[O-])cc1 | < 3.03 | 3.59 | –
4 | CC1(C2(C)OC(=O)c3ccccc32)OC(=O)c2ccccc21 (configuration not stated) | < 3.70 | < 3.70 | –
5 | CC(=O)Oc1ccc2c(c1)O/C(=C\c1ccc(O)cc1)C2=O | < 3.70 | 3.86 | –
6 | COc1cc2cccc(N=Cc3cccc(OC)c3OC(C)C)c2cc1OC | < 4.88 | < 4.88 | –
7 | CN(C)CCNC(c1ccccc1)C(O)c1ccccc1 (configuration not stated) | – | – | inactive
8 | COc1ccc(Nc2cc(=O)[nH]c(=O)[nH]2)cc1 | < 3.70 | < 3.70 | –
9 | CCOC(=O)/C(=C\c1ccc(OC)cc1)[Se]c1ccccc1 | < 4.70 | < 4.70 | –
10 | COC(=O)c1c2c(cc3c1CCC3)CCC2 | < 3.70 | < 3.70 | –
11 | O=C(c1ccccc1)[C@H]1Nc2ccc(Cl)cc2C2c3ccccc3CC21 (some centres not stated) | < 4.84 | < 4.84 | –
12 | CC(=O)/C(=C/n1c(=S)[nH]c2ccc([N+](=O)[O-])cc21)C(=O)Nc1ccc([N+](=O)[O-])cc1 | < 3.70 | 4.48 | –
13 | COS(=O)(=O)OCCC(NC(=O)OCc1ccccc1)C(=O)OCc1ccccc1 (configuration not stated) | < 4.08 | < 4.08 | –
14 | N/C(=N/N=C\c1nccc2ccccc12)NO | – | – | inactive
15 | CCN(CC)C(=S)SNCCc1ccc(S(N)(=O)=O)cc1 | < 3.70 | 4.98 | –
16 | CC1(C)C/C=C\CCC(O)C(O)CCC(C)(C)C1=O (configuration not stated) | < 3.70 | < 3.70 | –
17 | CC(=O)Nc1c(I)c(C(=O)O)c(I)c(N(C)C(C)=O)c1I | < 3.70 | < 3.70 | –
18 | COS(=O)c1cc(Cl)cc(Cl)c1O (configuration not stated) | – | – | inactive
19 | O=C1CSC(=Nc2ccc(F)cc2F)N1Cc1cccs1 | < 3.97 | 4.39 | –
20 | O=C1N(c2ccccc2)SN2C3C=CC(C4CC43)N12 (configuration not stated) | < 3.74 | < 3.74 | –

Row | Structure (SMILES) | pEC50 | pIC50 | outcome
21 | COc1ccc2c(c1)CCC/C2=N\NS(=O)(=O)c1c(C)cc(C)cc1C | < 3.70 | 4.48 | –
22 | C1=C(c2ccccc2)C(OC2Oc3ccccc3C=C2c2ccccc2)Oc2ccccc21 (configuration not stated) | < 4.50 | < 4.50 | –
23 | CC(C)OP(=O)(OC(C)C)/C(=N/Nc1ccccc1[N+](=O)[O-])NNC(=O)c1ccccc1 | < 5.93 | < 5.93 | –
24 | NC(CSSCC(N)C(=O)NC(Cc1ccccc1)C(=O)O)C(=O)NC(Cc1ccccc1)C(=O)O (stereo not drawn) (I: H-Cys-Phe-OH / II: H-Cys-Phe-OH; disulfide I:1-II:1; configuration not given here) | < 3.70 | < 3.70 | –
25 | CN1C(=O)[C@@H]2N(CSC2(C)C)C1=S | < 3.70 | < 3.70 | –
26 | C=C1OC(=O)/C(=C/CCCCCCCCCCCCCCCCC)[C@@H]1O | < 4.56 | < 4.56 | –
27 | CCn1c(=O)c(N=O)c(N)n(CCCOC)c1=O | < 3.70 | < 3.70 | –
28 | CCOC(=O)C(Cc1ccccc1)NC(=O)c1[nH]cnc1/N=N/N(C)C (configuration not stated) | < 3.16 | 3.45 | –
29 | COc1cc(C(C#N)NNc2nc(C)cc(=O)[nH]2)cc(OC)c1OC (configuration not stated) | < 3.98 | < 3.98 | –
30 | COc1ccc(C(OC(=O)[C@H](O[Si](C)(C)C(C)(C)C)[C@@H](NC(=O)c2ccccc2)c2ccccc2)c2ccc(OC)cc2)cc1 | < 3.70 | 4.02 | –
31 | CCOc1ccc(/C=N\N2C(=O)c3ccccc3C2=O)cc1 | < 3.91 | < 3.91 | –
32 | CC/C(=N/OC(=O)NC)c1ccccc1 | < 3.70 | < 3.70 | –
33 | O=C(O)CNc1c2ccccc2nc2ccccc12 | – | – | inactive
34 | CN(C)/C=N\c1c(C#N)c(CC#N)nn1-c1ccccc1 | < 3.70 | < 3.70 | –
35 | CC(C)C(NC(=O)OC(C)(C)C)C(=O)N(C)C(Cc1ccccc1)C(=O)N(C)C(C(=O)OCc1ccccc1)C(C)C (stereo not drawn) (Boc-Val-[NMeF]-[NMeV]-OBn; configuration not given here) | < 3.70 | 4.09 and 3.96 | –
36 | C/C(=C\c1ccccn1)c1ccccn1 | < 3.70 | < 3.70 | –
37 | NC(=O)NN=C1CCC(CC2CCCCC2)CC1 (configuration not stated) | < 3.70 | 3.76 | –
38 | Cc1cnc2c(c1)C(=O)N(c1ccc([N+](=O)[O-])cc1)S2(=O)=O | < 3.70 | 4.76 | –
39 | CC(=O)Nn1c(Cc2ccc(Cl)cc2)nn(C)c1=O | – | – | inactive
40 | Cc1ccc(S(=O)(=O)N/N=C2/CC[C@H](C(C)(C)C)C[C@@H]2C)cc1 | < 3.70 | 4.66 | –

Row | Structure (SMILES) | pEC50 | pIC50 | outcome
41 | O=C(/C=C/c1c(O)ccc2ccccc12)c1cccc(O)c1 | < 3.21 | 4.04 | –
42 | C/C(=N\O)c1ccccc1 | – | – | inactive
43 | COc1cnc([C@H]2CCC3[C@@H]4CC=C5C[C@@H](O)CC[C@]5(C)C4CC[C@@]32C)s1 (some centres not stated) | < 5.31 | < 5.31 | –
44 | CCOC(=O)C(=Cc1cccc([N+](=O)[O-])c1)C(=O)OCC | < 4.05 | 5.05 | –
45 | CC(CCC=C(c1cc(Cl)c(O)c(C(=O)O)c1)c1cc(Cl)c(O)c(C(=O)O)c1)C1CCC2C3CC[C@@H]4CCCC[C@]4(C)C3CC[C@]12C (some centres not stated) | < 5.14 | < 5.14 | –
46 | O=c1[nH]c(=O)n(C2OC(CO)C(O)C2O)cc1F (configuration not stated) | < 4.70 | 8.20 | –
47 | c1ccc(-c2nnc3oc(-c4cccs4)nn23)cc1 | < 4.00 | < 4.00 | –
48 | C#CCN(CCC)C(=O)COc1cc2c(O)c3c(O)c(C)c4c(c13)C(=O)C(C)(O/C=C/C(OC)C(C)C(OC(C)=O)C(C)C(O)C(C)C(O)C(C)/C=C/C=C(\C)C(=O)N2)O4 (configuration not stated) | < 3.70 | 4.40 | –
49 | CCC[CH2][Sn]1([CH2]CCC)[O]CC(c2ccccn2)C[O]1 | < 4.31 | 4.97 | –
50 | COc1cc2c(cc1OC)C1Cc3ccccc3CN1CCC2 (configuration not stated) | < 3.70 | 3.85 | –
51 | COc1ccc(C(=O)c2ccc(OC)c(S(=O)(=O)O)c2)cc1S(=O)(=O)O | < 3.24 | < 3.24 | –
52 | CCOP(=O)(OCC)/C(C#N)=C/c1ccc[nH]1 | < 3.01 | 3.24 | –
53 | COc1ccc(NC(=O)CC/C(CC(=O)C(C)(C)C)=N\NC(=O)C(=O)NN)cc1 | – | – | inactive
54 | COc1ccc(CC2(O)C3CC4CCC2C4C3)cc1 (configuration not stated) | < 3.70 | 4.06 | –
55 | Cc1cccc(NC(=O)CC(=O)N2N=C(N(CCC#N)c3ccc(Cl)cc3)CC2c2ccccc2)c1 (configuration not stated) | < 4.00 | < 4.00 | –
56 | COC(=O)C1(C(=O)OC)Cc2ccc(OC)cc2C2=C1C(=O)c1ccccc1C2=O | < 4.70 | 6.56 | –
57 | COc1ccc2c(ccc(=O)n2C)c1 | < 3.70 | < 3.70 | –
58 | COc1ccc(COCC(Cn2ccnc2)OCc2ccc(C(=O)O)cc2)cc1 (configuration not stated) | < 3.20 | 3.23 | –
59 | COc1ccc(/C=c2\sc3n(c2=O)CCN=3)cc1 | – | – | inactive
60 | Nc1nc(-c2ccccc2)nc2oc(-c3cccs3)nc12 | < 3.70 | < 3.70 | –
